Measured values: US6602826B1, “Heterocyclically substituted aromatic amino compounds with a herbicidal effect” (Bayer Aktiengesellschaft, priority 1997, dated 2003)

Columns and labels:
[1] = system: Avena fatua; experiment: Pre-emergence test; format: in vivo; settings: application rates between 250 and 750 g/ha, scored after three weeks vs untreated control, 0% = no action, 100% = total destruction
Experimental: (§1) Solvent: 5 parts by weight of acetone
(§2) Emulsifier: 1 part by weight of alkylaryl polyglycol ether
(§3) To prepare a suitable preparation of active compound, 1 part by weight of active compound is mixed with the stated amount of solvent, the stated amount of emulsifier is added, and the concentrate is diluted with water to the desired concentration.
(§4) Seeds of the test plants are sown in normal soil. After approx. 24 hours, the soil is sprayed with the preparation of active compound in such a way that the desired amounts of active compound are in each case applied per unit area. The concentration of the spray mixture is chosen in such a way that the desired amounts of active compound are in each case applied in 1,000 liters of water/ha.
(§5) After three weeks, the degree of damage to the plants is scored in % damage in comparison with the development of the untreated control.

[2] = system: Lolium; experiment: Pre-emergence test; format: in vivo; settings: application rates between 250 and 750 g/ha, scored after three weeks vs untreated control
Experimental: as §1, §2, §3, §4, §5

[3] = system: Matricaria; experiment: Pre-emergence test; format: in vivo; settings: application rates between 250 and 750 g/ha, scored after three weeks vs untreated control
Experimental: as §1, §2, §3, §4, §5

[4] = system: Solanum; experiment: Pre-emergence test; format: in vivo; settings: application rates between 250 and 750 g/ha, scored after three weeks vs untreated control
Experimental: as §1, §2, §3, §4, §5

[5] = system: wheat; experiment: Pre-emergence test (crop tolerance); format: in vivo; settings: application rates between 250 and 750 g/ha, scored after three weeks vs untreated control
Experimental: as §1, §2, §3, §4, §5

[6] = system: Abutilon; experiment: Post-emergence test; format: in vivo; settings: application rates of 15-750 g/ha, scored after three weeks vs untreated control
Experimental: as §1, §2, §3
(§6) Test plants which have a height of 5-15 cm are sprayed with the preparation of active compound in such a way that the desired amounts of active compound are in each case applied per unit area. The concentration of the spray mixture is chosen in such a way that the amounts of active compound desired in each case are applied in 1,000 liters of water/ha.
as §5

[7] = system: Galium; experiment: Post-emergence test; format: in vivo; settings: application rates of 15-750 g/ha, scored after three weeks vs untreated control
Experimental: as §1, §2, §3, §6, §5

[8] = system: Sinapis; experiment: Post-emergence test; format: in vivo; settings: application rates of 15-750 g/ha, scored after three weeks vs untreated control
Experimental: as §1, §2, §3, §6, §5

CC(C)(C)C(=O)Nc1ccc(Cl)cc1-n1c(=O)cc(C(F)(F)F)[nH]c1=O
melting point: 276 °C

Cn1c(C(F)(F)F)cc(=O)n(-c2cc(Cl)ccc2NC(=O)C(C)(C)C)c1=O
melting point: 267 °C

Cn1c(C(F)(F)F)cc(=O)n(-c2ccc(Cl)cc2NC(=O)C(C)(C)C)c1=O [Example 18]
degree of damage to the plants, Avena fatua [1]: 100% | degree of damage to the plants, Lolium [2]: 100% | degree of damage to the plants, Matricaria [3]: 100% | degree of damage to the plants, Solanum [4]: 100% | degree of damage to the plants, wheat (crop plant, tolerated well) [5]: 0% | degree of damage to the plants, Abutilon [6]: 100% | degree of damage to the plants, Galium [7]: 100% | degree of damage to the plants, Sinapis [8]: 100%

Cn1c(C(F)(F)F)cc(=O)n(-c2ccc(Cl)cc2NC(=O)C2CC2)c1=O [Example 19]
degree of damage to the plants, Avena fatua [1]: 100% | degree of damage to the plants, Lolium [2]: 100% | degree of damage to the plants, Matricaria [3]: 100% | degree of damage to the plants, Solanum [4]: 100% | degree of damage to the plants, wheat (crop plant, tolerated well) [5]: 0% | degree of damage to the plants, Abutilon [6]: 100% | degree of damage to the plants, Galium [7]: 100% | degree of damage to the plants, Sinapis [8]: 100%

CC(=O)Nc1cc(Cl)ccc1-n1c(=O)cc(C(F)(F)F)n(C)c1=O [Example 20]
degree of damage to the plants, Avena fatua [1]: 100% | degree of damage to the plants, Lolium [2]: 100% | degree of damage to the plants, Matricaria [3]: 100% | degree of damage to the plants, Solanum [4]: 100% | degree of damage to the plants, wheat (crop plant, tolerated well) [5]: 0% | degree of damage to the plants, Abutilon [6]: 100% | degree of damage to the plants, Galium [7]: 100% | degree of damage to the plants, Sinapis [8]: 100%

Cn1c(C(F)(F)F)cc(=O)n(-c2ccc(Cl)cc2NC(=O)c2ccc(Cl)cc2)c1=O [Example 23]
degree of damage to the plants, Avena fatua [1]: 100% | degree of damage to the plants, Lolium [2]: 100% | degree of damage to the plants, Matricaria [3]: 100% | degree of damage to the plants, Solanum [4]: 100% | degree of damage to the plants, wheat (crop plant, tolerated well) [5]: 0% | degree of damage to the plants, Abutilon [6]: 100% | degree of damage to the plants, Galium [7]: 100% | degree of damage to the plants, Sinapis [8]: 100%

CC(C)C(=O)Nc1cc(Cl)ccc1-n1c(=O)cc(C(F)(F)F)n(C)c1=O [Example 24]
degree of damage to the plants, Avena fatua [1]: 100% | degree of damage to the plants, Lolium [2]: 100% | degree of damage to the plants, Matricaria [3]: 100% | degree of damage to the plants, Solanum [4]: 100% | degree of damage to the plants, wheat (crop plant, tolerated well) [5]: 0% | degree of damage to the plants, Abutilon [6]: 100% | degree of damage to the plants, Galium [7]: 100% | degree of damage to the plants, Sinapis [8]: 100%

CCNC(=S)Nc1ccccc1-n1c(=O)n(C2CC2)c(=O)n1C [Example 102]
degree of damage to the plants, Avena fatua [1]: 100% | degree of damage to the plants, Lolium [2]: 100% | degree of damage to the plants, Matricaria [3]: 100% | degree of damage to the plants, Solanum [4]: 100% | degree of damage to the plants, wheat (crop plant, tolerated well) [5]: 0% | degree of damage to the plants, Abutilon [6]: 100% | degree of damage to the plants, Galium [7]: 100% | degree of damage to the plants, Sinapis [8]: 100%
